Data published in ChEMBL document CHEMBL2086306, “Manadosterols A and B, sulfonated sterol dimers inhibiting the Ubc13-Uev1A interaction, isolated from the marine sponge Lissodendryx fibrosa” (J Nat Prod, 2012).

Legend:
[1] = molecular target: Ubiquitin-conjugating enzyme E2 N/Ubiquitin-conjugating enzyme E2 variant 1 (Homo sapiens, UniProt P61088+Q13404); assay: Inhibition of recombinant human Ubc13-Uev1A interaction expressed in Escherichia BL21 after 1.5 hrs by ELISA
[2] = molecular target: Ubiquitin-conjugating enzyme E2 N/Ubiquitin-conjugating enzyme E2 variant 1 (Homo sapiens) (UniProt Q13404+P61088); assay: Ratio of leucettamol A IC50 to compound IC50 for recombinant human Ubc13-Uev1A interaction expressed in Escherichia BL21

IC50 [1] [nM]	Ratio IC50 [2]	Structure (SMILES)
130	–	C=C1CC(C)(C)[C@@H](/C=C/[C@@H](C)[C@H]2CC[C@H]3[C@@H]4C[C@H](OS(=O)(=O)O)[C@H]5C[C@@H](O)CC[C@]5(C)[C@H]4CC[C@]23C)[C@H]1CC(O)[C@@H](C)[C@H]1CC[C@H]2[C@@H]3C[C@H](OS(=O)(=O)O)[C@H]4C[C@H](OS(=O)(=O)O)[C@@H](OS(=O)(=O)O)C[C@]4(C)[C@H]3CC[C@]12C (stereo partly drawn) [MANADOSTEROL B]
90	1000	CC1=CC(C)(C)[C@@H](/C=C\[C@@H](C)[C@H]2CC[C@H]3[C@@H]4C[C@H](OS(=O)(=O)O)[C@H]5C[C@H](O)[C@@H](OS(=O)(=O)O)C[C@]5(C)[C@H]4CC[C@]23C)[C@H]1CC[C@@H](C)[C@H]1CC[C@H]2[C@@H]3C[C@H](OS(=O)(=O)O)[C@H]4C[C@H](OS(=O)(=O)O)[C@@H](OS(=O)(=O)O)C[C@]4(C)[C@H]3CC[C@]12C [MANADOSTEROL A]
